Publication PMC10259451 (Journal of Medicinal Chemistry, 2023)
In brackets after ≈: the same amount, converted by molar mass. Values belong to the compound of their own block, whether it stands above or below them.

Legend:
L. mexicana [1] = conditions: administered orally; cited from earlier work
[2] = test system: L. mexicana intracellular amastigotes; assay type: cell-based, Leishmania mexicana
[3] = Kinetic aqueous solubility; assay type: physicochemical; conditions: pH 7.4, Sol. (aqueous solubility)
L. mexicana [4] = experiment: Murine model of cutaneous leishmaniasis, footpad lesion size; assay type: in vivo, BALB/c mice; conditions: PO 50mg/kg/day for 10 days; p < 0.0001, Mann–Whitney

Structure (SMILES): Cc1ccc(-c2nc3ccccc3s2)cc1NC(=O)c1cc([N+](=O)[O-])c(N2CCN(C)CC2)cc1Cl [compound 4]
efficacy in murine model of cutaneous leishmaniasis (L. mexicana [1]): less efficacious than the positive control, miltefosine

Structure (SMILES): Cc1ccc(-c2nc3ccccc3s2)cc1NC(=O)c1ccc(F)c([N+](=O)[O-])c1 [compound 10]
antileishmanial activity in words ([2]; L. mexicana amastigotes): active

solubility [3]: ~9 µM (≈ 3.11 µg/mL)
Structure (SMILES): O=C(Nc1cccc(-c2ncco2)c1)c1cc([N+](=O)[O-])c(F)cc1F [compound 71]

EC50 ([2]; Leishmania mexicana, J774.A1, read-out: L. mexicana EC50, intracellular amastigotes in J774A.1 macrophages, mean ± SD, at least three experiments): 660 nM
Structure (SMILES): O=C(Nc1ccc(Cl)c(Cl)c1)c1ccc(N2CCNCC2)c([N+](=O)[O-])c1 [compound 79]
lesion size vs vehicle (L. mexicana [4]): significantly smaller lesions at weeks 4 and 5
